The source made the active and inactive calls. No cut-off for these calls is given here.
Experiments:
[1] = tested on: HUVEC; test: Inhibition of cell invasion in HUVEC cells measured after 24 hrs by crystal violet staining based inverted fluorescence microscopy analysis; format: functional; conditions: Homo sapiens, dose 0.25-2 µM
[2] = tested on: HUVEC; test: (§1) Antiproliferative activity against HUVEC cells measured after 48 hrs by CCK-8 method; format: toxicity, cell-based; conditions: human, huvec, 48 h; dose 0.062-16 µM
[3] = as §1; format: toxicity, cell-based; conditions: human, HUVEC cells
[4] = tested on: HUVEC; test: Anti-angiogenesis activity in HUVEC cells assessed as reduction in total tube length at 2 uM incubated for 12 hrs by inverted microscopic analysis relative to control; format: functional, Homo sapiens; set-up: scale not given: the % may be the effect or the level left
[5] = tested on: HUVEC; test: Inhibition of cell migration in HUVEC cells incubated for 12 hrs by crystal violet staining based wound healing assay; format: functional; conditions: Homo sapiens, dose 0.25-2 µM
[6] = tested on: HUVEC; test: Anti-angiogenesis activity in HUVEC cells assessed as reduction in total tube length at 1 uM incubated for 12 hrs by inverted microscopic analysis relative to control; format: functional, Homo sapiens; set-up: scale not given: the % may be the effect or the level left
[7] = species on record: Danio rerio; test: Anti-angiogenesis activity in zebrafish embryo assessed as effect on flt-1 mRNA expression at 0.5 to 5 uM measured after 24 hrs by qRT-PCR analysis; format: functional, organism-based; conditions: dose 0.5-5 µM
[8] = tested on: HUVEC; test: Inhibition of cell invasion in HUVEC cells assessed as reduction in number of invading cells at 2 uM measured after 24 hrs by crystal violet staining based inverted fluorescence microscopy analysis relative to control; format: functional; conditions: Homo sapiens
[9] = species on record: Danio rerio; test: Antiangiogenic activity against transgenic zebrafish model assessed as inhibition of inter-segmental blood vessels of embryo at 0.625 uM measured after 72 hrs post fertilization by fluorescence microscopy based analysis; format: functional, organism-based
[10] = species on record: Danio rerio; test: Anti-angiogenesis activity in zebrafish embryo assessed as effect on […]-mRNA expression at 0.5 to 5 uM measured after 24 hrs by qRT-PCR analysis; format: functional, organism-based; conditions: dose 0.5-5 µM
[11] = tested on: HUVEC; test: Inhibition of cell migration in HUVEC cells assessed as […] in wound closure area at 0.25 to 2 uM incubated for 12 hrs by crystal violet staining based wound healing assay relative to DMSO; format: functional; conditions: Homo sapiens, dose 0.25-2 µM
[12] = tested on: HUVEC; test: Inhibition of cell migration in HUVEC cells at 2 uM by crystal violet staining based Boyden chamber assay relative to control; format: functional; conditions: Homo sapiens
[13] = species on record: Danio rerio; test: Anti-angiogenesis activity in zebrafish embryo assessed as downregulation of tek mRNA expression at 0.5 to 5 uM measured after 24 hrs by qRT-PCR analysis; format: functional, organism-based; conditions: dose 0.5-5 µM
[14] = tested on: HUVEC; test: Anti-angiogenesis activity in HUVEC cells assessed as appearance of broken tubule network structure at 0.25 to 2 uM incubated for 12 hrs by inverted microscopic analysis; format: functional, cell-based; conditions: Homo sapiens, dose 0.25-2 µM
[15] = tested on: HUVEC; test: Inhibition of cell migration in HUVEC cells at 0.5 uM by crystal violet staining based Boyden chamber assay relative to control; format: functional; conditions: Homo sapiens
[16] = tested on: HUVEC; test: Inhibition of cell migration in HUVEC cells at 0.25 uM by crystal violet staining based Boyden chamber assay; format: functional; conditions: Homo sapiens
[17] = species on record: Danio rerio; test: Anti-angiogenesis activity in zebrafish embryo assessed as downregulation of kdr mRNA expression at 0.5 to 5 uM measured after 24 hrs by qRT-PCR analysis; format: functional, organism-based; conditions: dose 0.5-5 µM
[18] = species on record: Danio rerio; test: Anti-angiogenesis activity in zebrafish embryo assessed as downregulation of ang-2 mRNA expression at 0.5 to 5 uM measured after 24 hrs by qRT-PCR analysis; format: functional, organism-based; conditions: dose 0.5-5 µM
[19] = tested on: HUVEC; test: Anti-angiogenesis activity in HUVEC cells assessed as appearance of incomplete tubule network structure at 0.25 to 2 uM incubated for 12 hrs by inverted microscopic analysis; format: functional, cell-based; conditions: Homo sapiens, dose 0.25-2 µM
[20] = species on record: Danio rerio; test: Anti-angiogenesis activity in zebrafish embryo assessed as downregulation of kdr1 mRNA expression at 0.5 to 5 uM measured after 24 hrs by qRT-PCR analysis; format: functional, organism-based; conditions: dose 0.5-5 µM
[21] = species on record: Danio rerio; test: Antiangiogenic activity against transgenic zebrafish model assessed as inhibition of inter-segmental blood vessels of embryo at 2.5 uM measured after 72 hrs post fertilization by fluorescence microscopy based analysis relative to control; format: functional; set-up: scale not given: the % may be the effect or the level left
[22] = species on record: Danio rerio; test: Anti-angiogenesis activity in zebrafish embryo assessed as effect on fgfr2 mRNA expression at 0.5 to 5 uM measured after 24 hrs by qRT-PCR analysis; format: functional, organism-based; conditions: dose 0.5-5 µM
[23] = tested on: HUVEC; test: Inhibition of cell migration in HUVEC cells at 1 uM by crystal violet staining based Boyden chamber assay relative to control; format: functional; conditions: Homo sapiens
[24] = tested on: HUVEC; test: Anti-angiogenesis activity in HUVEC cells assessed as appearance of few branches in tubule network structure at 0.25 to 2 uM incubated for 12 hrs by inverted microscopic analysis; format: functional, cell-based; conditions: Homo sapiens, dose 0.25-2 µM
[25] = tested on: HUVEC; test: Inhibition of cell migration in HUVEC cells at 0.25 uM by crystal violet staining based Boyden chamber assay relative to control; format: functional; conditions: Homo sapiens
[26] = species on record: Danio rerio; test: Antiangiogenic activity against transgenic zebrafish model assessed as inhibition of inter-segmental blood vessels of embryo measured after 72 hrs post fertilization by fluorescence microscopy based analysis; format: functional, organism-based; conditions: dose 0.625-2.5 µM
[27] = tested on: HUVEC; test: Anti-angiogenesis activity in HUVEC cells assessed as appearance of shorter tubule length at 0.25 to 2 uM incubated for 12 hrs by inverted microscopic analysis; format: functional, cell-based; conditions: Homo sapiens, dose 0.25-2 µM
[28] = Toxicity in transgenic zebrafish at 2.5 uM measured after 72 hrs; set-up: species or system Danio rerio; conditions: in vivo
[29] = species on record: Danio rerio; test: Anti-angiogenesis activity in zebrafish embryo assessed as effect on fgf2 mRNA expression at 0.5 to 5 uM measured after 24 hrs by qRT-PCR analysis; format: functional, organism-based; conditions: dose 0.5-5 µM

## COc1cc(CCc2ccccc2Cl)cc(OC)c1O
[1]
  inhibition: Dose-Dependent Effect
[2]
  Activity: Dose-Dependent Effect
[3]
  IC50 at 48 h: 1.7 µM
[4]
  Activity: 22.6%
[5]
  inhibition: Dose-Dependent Effect
[6]
  Activity: 38.7%
[7]
  Activity: inactive
[8]
  inhibition at 2 µM: 17.4%
[9]
  Activity: Active
[10]
  Activity: inactive
[11]
  inhibition: Active
[12]
  inhibition at 2 µM: ~78.5%
[13]
  Activity: Active
[14]
  Activity: Active
[15]
  inhibition at 0.5 µM: ~64.4%
[16]
  inhibition: Active
[17]
  Activity: Active
[18]
  Activity: Active
[19]
  Activity: Active
[20]
  Activity: Active
[21]
  Activity: 100%
[22]
  Activity: inactive
[23]
  inhibition at 1 µM: ~71.3%
[24]
  Activity: Active
[25]
  inhibition at 0.25 µM: ~37.2%
[26]
  Activity: Dose-Dependent Effect
[27]
  Activity: Active
[28]
  Activity: Toxic
[29]
  Activity: inactive

— ChEMBL document CHEMBL6071134, “Novel bibenzyl compound Ae exhibits anti-agiogenic activity in HUVECs in vitro and zebrafish in vivo” (Bioorg Med Chem, 2024)
